From patent US20090306135A1 (priority 2008, published 2009) come the findings set out here.

The text on data set [1]:
X-Ray tube with Cu target anode Divergence slits 1 0, Receiving slit 0.15 mm, Scatter slit 1 0 Power: 40 KV, 100 mA; Scanning speed: 2 degree/minute step: 0.02 degree; Wave length: 1.5406 A; Spray Dryer: PST01

Data set [2] is described as follows: Storage stability at 25 ± 2° C. and 60 ± 5% RH. Format: physicochemical.
Setting [3] is: 40 ± 2° C. and 75 ± 5% RH, 1 Month.
Setting [4] is: 40 ± 2° C. and 75 ± 5% RH, 2 Month.
[5] abbreviates: 40 ± 2° C. and 75 ± 5% RH, 3 Month.
Setting [6] is: 40 ± 2° C. and 75 ± 5% RH, Initial.
Where [7] appears, read: 40 ± 2° C. and 75 ± 5% RH (Using BHA), 1 Month.
The mark [8] stands for this setting: 40 ± 2° C. and 75 ± 5% RH (Using BHA), 2 Month.
Setting [9] is: 40 ± 2° C. and 75 ± 5% RH (Using BHA), Initial.

Molecules are shown by their SMILES. Read-outs that look alike come from different tables or passages of the source. Bounds are passed on as bounds.

As for `CC(C)(C(=O)O)c1ccc(C(O)CCCN2CCC(C(O)(c3ccccc3)c3ccccc3)CC2)cc1.Cl` (racemic) [amorphous fexofenadine hydrochloride, (±)-4-[1 hydroxy-4-[4-(hydroxydiphenylmethyl)-1-piperidinyl]-butyl]-α,α-dimethyl benzeneacetic acid hydrochloride], the “time for which the product is stable” value in data set [1] (different storage conditions (Tables 1-3)) was not below 3 months.
As for `CC(C)(C(=O)O)c1ccc(C(O)CCCN2CCC(C(O)(c3ccccc3)c3ccccc3)CC2)cc1.Cl` (racemic) [Example 1, (±)-4-[1 hydroxy-4-[4-(hydroxydiphenylmethyl)-1-piperidinyl]-butyl]-α,α-dimethyl benzeneacetic acid hydrochloride], the “Assay by HPLC” value in data set [2] (3 Month) was found to be 99.4 % w/w on dried basis; in data set [2] (6 Month), 98.8 % w/w on dried basis; in data set [2] (9 Month), 100.2 % w/w on dried basis; in data set [2] (Initial), 99.0 % w/w on dried basis; in data set [1] (setting [3]), 99.4 % w/w on dried basis; in data set [1] (setting [4]) it was 98.7 % w/w on dried basis. Further, the “Assay by HPLC” value in data set [1] (setting [5]) is 99.3 % w/w on dried basis; in data set [1] (setting [6]), 99.0 % w/w on dried basis. The Description result in data set [2] (3 Month), in data set [2] (6 Month), in data set [2] (9 Month), in data set [2] (Initial), in data set [1] (setting [3]) and in data set [1] (setting [4]) was “White Powder” throughout. Besides, the Description result in data set [1] (setting [5]) and in data set [1] (setting [6]) was “White Powder” each time. Further, the “Possible impurities Comp-A” value in data set [2] (3 Month) turned out to be 0.050; in data set [2] (6 Month), 0.040; in data set [2] (9 Month) it was 0.039; in data set [2] (Initial), 0.049; in data set [1] (setting [3]), 0.050; in data set [1] (setting [4]), 0.047. The “Possible impurities Comp-A” value in data set [1] (setting [5]) was found to be 0.053; in data set [1] (setting [6]), 0.049. Also, the “Related Subs” value in data set [2] (3 Month) is recorded as 0.213 % w/w; in data set [2] (6 Month) it was 0.186 % w/w; in data set [2] (9 Month), 0.171 % w/w; in data set [2] (Initial), 0.188 % w/w; in data set [1] (setting [3]), 0.201 % w/w; in data set [1] (setting [4]), 0.237 % w/w. The figures for the “Related Subs” value in data set [1] (setting [5]) and in data set [1] (setting [6]) were 0.203 % w/w and 0.188 % w/w, respectively. In addition, the XRD entry in data set [2] (3 Month), in data set [2] (6 Month), in data set [2] (9 Month), in data set [2] (Initial), in data set [1] (setting [3]) and in data set [1] (setting [4]) was “Complies” throughout. Besides, the XRD result in data set [1] (setting [5]) and in data set [1] (setting [6]) was “Complies” throughout. The “Possible impurities ME-pF (Methyl ester of p-fexofenadine)” value in data set [1] (setting [4]) is listed as 0.002. The “Possible impurities TRS-1” value in data set [1] (setting [4]) is reported as 0.008.
Turning to `CC(C)(C(=O)O)c1ccc(C(O)CCCN2CCC(C(O)(c3ccccc3)c3ccccc3)CC2)cc1.Cl` (racemic) [Example 2, (±)-4-[1 hydroxy-4-[4-(hydroxydiphenylmethyl)-1-piperidinyl]-butyl]-α,α-dimethyl benzeneacetic acid hydrochloride], in data set [1] (setting [7]), the “Assay by HPLC” value is 99.6 % w/w on dried basis, the Description result is reported as “White powder”, the “Possible impurities Comp-A” value was 0.069 and the “Possible impurities ME-mF (Methyl ester of m-fexofenadine)” value (shortened to “Possible impurities ME-mF”) was 0.023. Also, in data set [1] (setting [7]), the “Possible impurities TRS-1” value is 0.008, the “Related Subs” value stood at 0.227 % w/w and the XRD entry is given as “Complies”. Further, in data set [1] (setting [8]), the “Assay by HPLC” value came to 99.3 % w/w on dried basis, the Description entry is “White powder”, the “Possible impurities Comp-A” value was found to be 0.067 and the “Possible impurities ME-mF” value was determined as 0.019. In data set [1] (setting [8]), the “Possible impurities TRS-1” value was 0.009, the “Related Subs” value is reported as 0.218 % w/w and the XRD result is “Complies”. Besides, in data set [1] (setting [9]), the “Assay by HPLC” value amounted to 99.3 % w/w on dried basis, the Description entry is listed as “White powder”, the “Possible impurities Comp-A” value was found to be 0.071 and the “Possible impurities ME-mF” value was found to be 0.023. For the same compound, in data set [1] (setting [9]), the “Related Subs” value stood at 0.219 % w/w and the XRD result is given as “Complies”.
